Results from US10385103B2, “Cell-permeable (ICP)-SOCS3 recombinant protein and uses thereof” (CELLIVERY THERAPEUTICS, INC., priority 2014, dated 2019).
Entries after “also recorded” stand apart in the source; their conditions may differ.

What was measured:
RAW 264.7 cells [1] = experiment: Quantitative cell-permeability of FITC-labeled aMTD- or rPeptide-fused CRA recombinant proteins (flow cytometry); type: cell-based; details: for Relative Ratio to aMTD AVE: cell-permeability of rPeptide-fused CRA recombinant protein relative to average of 240 aMTDs, 10 μM FITC-labeled, 1 hour, 37° C., RAW 264.7 cells
Outline: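 Uptake of fluorescently labeled, peptide-fused cargo proteins was quantified by flow cytometry (Guava, Millipore) and analyzed in FlowJo software. RAW 264.7 cells received 10 μM FITC-labeled protein for 1 hour at 37° C., were rinsed three times with cold PBS, and were trypsinized with 0.25% tripsin/EDTA for 20 minutes at 37° C. to remove bound protein before measurement. Permeability was expressed relative to reference proteins.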

[2] = Solubility/yield of SOCS3 recombinant proteins expressed and purified from E. coli; type: physicochemical
Procedure: Thereafter, the recombinant protein gene-introduced E. coli was inoculated in 7 ml of LB medium, and then incubated at 37° C. overnight. The E. coli was inoculated in 700 ml of LB medium and incubated at 37° C. until OD600 reached 0.6. To this culture medium, 0.6 mM of isopropyl-β-D-thiogalactoside (IPTG, Gen Depot, USA) was added as a protein expression inducer, followed by further incubation at 37° C. for 3 hours. This culture medium was centrifuged at 4° C. and 8,000 rpm for 10 minutes and a supernatant was discarded to recover a cell pellet. The cell pellet thus recovered was suspended in a lysis buffer (100 mM NaH2PO4, 10 mM Tris-HCl, 8 M Urea, pH 8.0), and cells were disrupted by sonication (on/off time: 30 sec/30 sec, on time 2 hours, amplify 40%), and centrifuged at 15,000 rpm for 30 min to obtain a soluble fraction and an insoluble fraction.
After purification, the proteins were put in a SnakeSkin Dialysis Tubing bag (pore size: 10000 mw, Thermo scientific, USA) and then they were dialyzed by physiological buffer (DMEM). The strain lysate where protein expression was not induced, the strain lysate where protein expression was induced by addition of IPTG, and purified proteins were loaded on SDS-PAGE to analyze protein expression characteristics and expression levels (FIGS. 19 and 20).
Solubility of aMTD/SD-fused SOCS3 proteins was scored on a 5 point scale compared with that of SOCS3 proteins lacking the solubilization domain.

RAW 264.7 cells [3] = experiment: Cell-permeability of FITC-labeled SOCS3 recombinant proteins (flow cytometry); type: cell-based; details: 10 μM FITC-labeled protein, 1 hr, 37° C.
Procedure: (§1) To examine cell-permeability of SOCS3 recombinant protein, SOCS3 recombinant proteins were conjugated to 5/6-fluorescein isothiocyanate (FITC). RAW 264.7 (KCLB, Seoul, South Korea) (FIG. 20) or NIH3T3 cells (KCLB, Seoul, South Korea) (FIG. 21) were treated with 10 μM FITC-labeled SOCS3 recombinant proteins and cultivated for 1 hr at 37° C.
In this regard, RAW 264.7 cells were cultured in a DMEM medium containing 10% fetal bovine serum (FBS, Hyclone, USA) and […] of 1% penicillin/streptomycin (Hyclone, USA).
(§2) After cultivation, the cells were washed three times with ice-cold PBS (Phosphate-buffered saline, Hyclone, USA) and treated with proteinase K (10 μg/mL, SIGMA, USA) to remove surface-bound proteins, and internalized proteins were measured by flow cytometry (FlowJo cytometric analysis software, Guava, Millipore, Darmstadt, Germany). Untreated cells (gray) and equimolar concentration of unconjugated FITC (FITC only, green)-treated cells were served as control (FIG. 20). Each of NIH3T3 cells was incubated for 1 hour at 37° C. with 10 μM FITC-labeled SOCS3 protein. For nuclear staining, a mixture of […] Mounting Medium (Vector laboratories, Burlingame, Calif.) and DAPI (4′,6-diamidino-2-phenylindole) was added to NIH3T3 cells, and visualized using a confocal laser microscope (LSM700, Zeiss, Germany) (FIG. 21).

NIH3T3 cells = experiment: Intracellular delivery and localization of FITC-labeled SOCS3 recombinant proteins (confocal microscopy); type: cell-based, mouse; details: 10 μM FITC-labeled SOCS3 protein, 1 hour, 37° C.
Procedure: as §1, §2

STAT1 = experiment: Inhibition of IFN-γ-induced STAT phosphorylation in PANC-1 cells (western blot), STAT1; type: cell-based; details: PANC-1, 10 ng/ml IFN-γ 15 min, 10 μM protein 2 hrs
Procedure: (§3) PANC-1 Cells (KCLB, Seoul, South Korea) were treated with 10 ng/ml IFN-γ (R&D systems, Abingdon, UK) for 15 min and treated with either DMEM (vehicle) or 10 μM aMTD/SD-fused SOCS3 recombinant proteins for 2 hrs. The cells were lysed in RIPA lysis buffer (Biosesang, Seongnam, Korea) containing proteinase inhibitor cocktail (Roche, Indianapolis, Ind., USA), incubated for 15 min at 4° C., and centrifuged at 13,000 rpm for 10 min at 4° C. Equal amounts of lysates were separated on 10% SDS-PAGE gels and transferred to a nitrocellulose membrane. The membranes were blocked using 5% skim milk in TBST and for western blot analysis incubated with the following antibodies: anti-phospho-STAT1 (Cell Signaling Technology, USA) and anti-phospho-STAT3 (Cell Signaling Technology, USA), then HRP conjugated anti-rabbit secondary antibody (Santacruz).

STAT3 = experiment: Inhibition of IFN-γ-induced STAT phosphorylation in PANC-1 cells (western blot), STAT3; type: cell-based; details: PANC-1, 10 ng/ml IFN-γ 15 min, 10 μM protein 2 hrs
Procedure: as §3
as §3, with “(vehicle) or 1, 5, 10 μM” for “(vehicle) or 10 μM”, “following antibodies: anti-phospho-STAT3 (Cell” for “following antibodies: anti-phospho-STAT1 (Cell Signaling Technology, USA) and anti-phospho-STAT3 (Cell”

TNF-α = experiment: LPS/IFN-γ-induced cytokine secretion in peritoneal macrophages (cytometric bead array), TNF-α; type: cell-based, C3H/HeJ mice; details: 10 μM protein; IFN-γ and LPS
Procedure: (§4) Peritoneal macrophages were obtained from C3H/HeJ mice (Doo-Yeol Biotech Co. Ltd. Korea) Peritoneal macrophages were incubated with 10 μM SOCS3 recombinant proteins (1:HS3, 2:HM165S3, 3:HM165S3A and 4:HM165S3B, respectively) for 1 hr at 37° C. and then stimulated them with LPS (Lipopolysaccharide)(500 ng/ml) and/or IFN-γ (100 U/ml) without removing iCP-SOCS3 proteins for 3, 6, or 9 hrs. The culture media were collected, and the extracellular levels of cytokine (TNF-α, IL-6) were measured by a cytometric bead array (BD Pharmingen, San Diego, Calif., USA) according to the manufacturer's instructions.

IL-6 = experiment: LPS/IFN-γ-induced cytokine secretion in peritoneal macrophages (cytometric bead array), IL-6; type: cell-based, C3H/HeJ mice; details: 10 μM protein; IFN-γ and LPS
Procedure: as §4

HepG2 cells = experiment: Cell-permeability of FITC-labeled SOCS3 recombinant proteins in hepatocellular carcinoma cells (flow cytometry); type: cell-based, human; details: 10 μM FITC-labeled protein, 1 hr, 37° C.
Procedure: HepG2 cells (ATCC, Manassas, Va., USA) were seeded in a 12 well plate, grown to 90% confluence. Cells were treated with 10 μM FITC-labeled iCP-SOCS3 recombinant proteins and cultivated for 1 hr at 37° C.
After cultivation, the cells were treated with proteinase K (10 ug/mL, SIGMA, USA) and washed three times with ice-cold PBS (Phosphate-buffered saline, Hyclone, USA) to remove surface-bound proteins, and internalized proteins were measured by flow cytometry (FlowJo cytometric analysis software, Guava, Millipore, Darmstadt, Germany). Untreated cells (gray) and equimolar concentration of unconjugated FITC (FITC only, green)-treated cells were served as control (FIG. 57).

AGS cells = experiment: Induction of apoptosis by Annexin V/7-AAD staining in gastric carcinoma cells; type: cell-based; details: 10 uM, 14 hours
Procedure: AGS cells (gastric carcinoma cell line) (American Type Culture Collection; ATCC) were seeded in a 12-well plate at a density of 1×10^5 cells/well, and then treated with 10 uM of aMTD/SD-fused SOCS3 for 14 hours. Cancer cell death was analyzed by Annexin V analysis. Annexin V/7-Aminoactinomycin D (7-AAD) staining was performed using flow cytometry according to the manufacturer's guidelines (BD Pharmingen, San Diego, Calif., USA). Briefly, cells were washed three times with ice-cold PBS. The cells were then resuspended in 100 μl of binding buffer and incubated with 1 μl of 7-AAD and 1 μl of annexin V-PE for 30 min in the dark at 37° C. Flow cytometric analysis was immediately performed using a guava easyCyte™ 8 Instrument (Merck Millipore, Darmstadt, Germany).

[4] = cell-permeability of aMTD-fused CRA recombinant protein relative to negative control (A: rP38)
[5] = cell-permeability of aMTD-fused CRA recombinant protein relative to reference CPP (B: MTM12)
[6] = cell-permeability of aMTD-fused CRA recombinant protein relative to reference CPP (C: MTD85)

With “911 (VALALPAVVVAP; Amino acid Sequence of aMTD911) [compound 911]” the “Relative Ratio (Fold) A” value (RAW 264.7 cells [1]; [4]) was 84.8 Fold, the “Relative Ratio (Fold) B” value (RAW 264.7 cells [1]; [5]) was 56.8 Fold and the “Relative Ratio (Fold) C” value (RAW 264.7 cells [1]; [6]) was 28.7 Fold. The “Relative Ratio (Fold) A” value (RAW 264.7 cells [1]; relative cell-permeability of aMTD vs reference A (not defined)) was 84.8 Fold, the “Relative Ratio (Fold) B” value (RAW 264.7 cells [1]; relative cell-permeability of aMTD vs reference CPP B: MTM12) was 56.8 Fold and the “Relative Ratio (Fold) C” value (RAW 264.7 cells [1]; relative cell-permeability of aMTD vs reference CPP C: MTD85) was 28.7 Fold.

In the case of “921 (IWWFVVLPLVVP; Amino acid Sequence of rPeptide ID 921) [compound 921]”, the “Relative Ratio to aMTD AVE” value (RAW 264.7 cells [1]) is reported as 0.14, the “Relative Ratio (Fold) A” value (RAW 264.7 cells [1]; relative cell-permeability of rPeptide vs reference A (not defined)) is reported as 2.8 Fold and the “Relative Ratio (Fold) B” value (RAW 264.7 cells [1]; relative cell-permeability of rPeptide vs reference CPP B: MTM12) is reported as 1.9 Fold. For the same molecule, the “Relative Ratio (Fold) C” value (RAW 264.7 cells [1]; relative cell-permeability of rPeptide vs reference CPP C: MTD85) was 0.9 Fold.

For “934 (LILAPAAVVAAA; Amino acid Sequence of rPeptide ID 934) [compound 934]”, the “Relative Ratio to aMTD AVE” value (RAW 264.7 cells [1]) was 0.28.

For “938 (VPVLLPVVVPVP; Amino acid Sequence of rPeptide ID 938) [compound 938]”, the “Relative Ratio to aMTD AVE” value (RAW 264.7 cells [1]) was 0.28.

In the case of “964 (ALLVIAPAIAVP; Amino acid Sequence of aMTD864) [compound 964]”, the “Relative Ratio (Fold) A” value (RAW 264.7 cells [1]; [4]) is reported as 8.2 Fold, the “Relative Ratio (Fold) B” value (RAW 264.7 cells [1]; [5]) is reported as 4.8 Fold and the “Relative Ratio (Fold) C” value (RAW 264.7 cells [1]; [6]) is reported as 2.8 Fold.

For “HS3: His-tagged SOCS3 recombinant protein lacking an aMTD and a SD [reference compound]”, the “solubility (tendency to precipitate)” value ([2]; expressed and purified in E. coli) was “largely insoluble; also recorded: less soluble”, the “cell-permeability (protein uptake)” value (RAW 264.7 cells [3]) was “did not appear to enter cells” and the “intracellular delivery and localization” value (NIH3T3 cells) was “did not appear to enter cells”. The “IFN-γ-induced phosphorylation of STAT1” value (STAT1) was “STAT phosphorylation was readily detected”, the “IFN-γ-induced phosphorylation of STAT3” value (STAT3) was “STAT phosphorylation was readily detected” and the “effect on TNF-α secretion” value (TNF-α) was “unchanged”. For the same molecule, the “effect on IL-6 secretion” value (IL-6) was “unchanged” and the “transduction into HepG2 cells” value (HepG2 cells) was “did not appear to enter cells”.

B1: M165S3B: his-tag-removed aMTD165-SOCS3-SDB recombinant protein (protein)
chain: ALAVPVALAIVPVTHSKFPAAGMSRPLDTSLRLKTFSSKSEYQLVVNAVRKLQESGFYWSAVTGGEANLLLSAEPAGTFLIRDSSDQRHFFTLSVKTQSGTKNLRIQCEGGSFSLQSDPRSTQPVPRFDCVLKLVHHYMPPPGAPSFPSPPTEPSSEVPEQPSAQPLPGSPPRRAYYIYSGGEKIPLVLSRPLSSNVATLQHLCRKTVNGHLDSYEKVTQLPGPIREFLDQYDAPLMAEQSDKDVKYYTLEEIQKHKDSKSTWLILHHKVYDLTKFLEEHPGGEEVLGEQAGGDATENFEDVGHSTDARELSKTYIIGELHPDDRSKIAKPSETL
modifications: Amino acid sequence of E.coli codon usage optimized M165S3B′
notes: his-tag-removed aMTD165-SOCS3-SDB recombinant protein
For B1, the solubility/yield [2] was “high solubility/yield”, the “cell-permeability (protein uptake)” value (RAW 264.7 cells [3]) was “high cell permeability” and the “induction of apoptosis (Annexin V)” value (AGS cells) was “showed high anticancer efficacy; also recorded: efficacy equivalent to or higher than HM165S3B”.
